Measured values reported in patent US7342027B2 (Yuhan Corporation, priority 2002, dated 2008).
pIC50: −log10 of the molar value.

Legend:
[1] = target: T1, Recombinant human cathepsin K (Homo sapiens, UniProt P43235); experiment: Inhibition of cathepsin K activity (Z-Phe-Arg-AMC fluorescence assay); assay type: biochemical; settings: 25 uM Z-Phe-Arg-AMC, pH 5.5, 1 hour at 37° C.
T1 construct: made in house
T1 sequence (P43235 115-329): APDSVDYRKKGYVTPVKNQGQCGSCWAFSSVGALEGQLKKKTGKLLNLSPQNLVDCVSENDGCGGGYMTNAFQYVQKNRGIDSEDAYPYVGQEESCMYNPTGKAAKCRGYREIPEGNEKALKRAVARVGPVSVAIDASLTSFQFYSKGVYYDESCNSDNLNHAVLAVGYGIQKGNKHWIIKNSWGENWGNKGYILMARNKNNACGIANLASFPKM
In short: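 Z-Phe-Arg-AMC at 25 uM in 100 mM Na acetate pH 5.5 with 20 mM cysteine, 5 mM EDTA and 2% final DMSO; reaction started by adding enzyme, then 1 hour at 37° C. Fluorescence read at ex 360/em 460 nm; IC50 is the concentration giving 50% inhibition.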

[2] = target: T2, Cathepsin C (Sigma, C8511) (Bos taurus, UniProt Q3ZCJ8); experiment: Selectivity study: cathepsin C (Gly-Phe-pNA); assay type: biochemical; settings: 1 hour at 37° C., read-out: Cathepsins (IC50, nM) C
T2 construct: purchased Sigma C8511
Procedure: (§1) Test 2: Selectivity Study
(§2) Selectivity study for the compounds of the present invention was performed using cathepsin C (Sigma, C8511), cathepsin G (Calbiochem, 219373), cathepsin H (Calbiochem, 219388), cathepsin L (Calbiochem, 219402), and cathepsin S (Eur. J. Biochem. 236, 558 (1996) as enzyme sources.
(§3) Cathepsin C (Sigma, C8511) was dissolved in D.W. buffer (pH 5.5). All inhibitors were prepared in dimethyl sulfoxide (DMSO). In vitro assays for cathepsin C were conducted with Gly-Phe-pNA (Sigma, G-0142) as a substrate. Samples were pre-incubated for 10 minutes at 37° C. Reaction was initiated by the addition of enzyme to samples, which were then incubated for 1 hour at 37° C. The absorbance of p-nitroaniline released was monitored at 405 nm using spectrophotometer.
(§4) The concentrations of the test compounds, which inhibit 50% of cathepsin s C, G, H, L and S activity, are represented as IC50 in Table 2.

[3] = target: T3, Cathepsin G (Calbiochem, 219373) (Homo sapiens, UniProt P08311); experiment: Selectivity study: cathepsin G (Suc-Ala-Ala-Pro-Phe-pNA); assay type: biochemical; settings: 1 hour at 25° C., read-out: Cathepsins (IC50, nM) G
T3 construct: purchased Calbiochem 219373
T3 sequence (P08311 21-244): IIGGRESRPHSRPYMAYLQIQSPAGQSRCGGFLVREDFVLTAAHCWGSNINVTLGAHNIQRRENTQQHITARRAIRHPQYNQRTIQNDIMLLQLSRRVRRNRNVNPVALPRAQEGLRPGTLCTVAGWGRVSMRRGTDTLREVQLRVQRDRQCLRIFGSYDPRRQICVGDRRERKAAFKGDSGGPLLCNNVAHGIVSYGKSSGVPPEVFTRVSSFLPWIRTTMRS
Procedure: as §1, §2
as §3, with “Cathepsin G (Calbiochem, 219373)” for “Cathepsin C (Sigma, C8511)”, “in 50 mM NaOAc and 150 mM NaCl” for “in D.W.”, “cathepsin G” for “cathepsin C”, “with Suc-Ala-Ala-Pro-Phe-pNA (Calbiochem, 219407)” for “with Gly-Phe-pNA (Sigma, G-0142)”, “at 25°” for “at 37°”
as §4

[4] = target: T4, Cathepsin H (Calbiochem, 219388) (Homo sapiens, UniProt P09668); experiment: Selectivity study: cathepsin H (L-Arg-pNA); assay type: biochemical; settings: 1 hour at 40° C., read-out: Cathepsins (IC50, nM) H
T4 construct: purchased Calbiochem 219388
T4 sequence (P09668 98-335): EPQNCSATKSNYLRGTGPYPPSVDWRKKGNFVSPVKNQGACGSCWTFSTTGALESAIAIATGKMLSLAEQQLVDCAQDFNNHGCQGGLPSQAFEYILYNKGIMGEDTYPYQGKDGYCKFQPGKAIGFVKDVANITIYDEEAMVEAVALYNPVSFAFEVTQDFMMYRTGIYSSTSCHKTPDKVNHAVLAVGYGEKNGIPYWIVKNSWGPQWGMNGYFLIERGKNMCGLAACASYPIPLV
Procedure: as §1, §2
Cathepsin H (Calbiochem, 219388) was dissolved in 20 mM NaOAc, 1 mM EDTA-2Na and 100 mM NaCl buffer (pH 4.6). All inhibitors were prepared dimethyl sulfoxide (DMSO). In vitro assays for cathepsin H were conducted with L-Arg-pNA (BACHEM, 1-1160) as a substrate. Samples were pre-incubated for 5 minutes at 40° C. Reaction was initiated by the addition of enzyme to samples, which were then incubated for 1 hour at 40° C. The absorbance of p-nitroaniline released was monitored at 405 nm using spectrophotometer.
as §4

[5] = target: T5, Cathepsin L (Calbiochem, 219402) (Homo sapiens, UniProt P07711); experiment: Selectivity study: cathepsin L (Z-Phe-Arg-AMC); assay type: biochemical; settings: 1 hour at 25° C., read-out: Cathepsins (IC50, nM) L
T5 construct: purchased Calbiochem 219402
Procedure: as §1, §2
Cathepsin L (Calbiochem, 219402) was dissolved in 50 mM NaOAc buffer (pH 5.0). All inhibitors were prepared in dimethyl sulfoxide (DMSO). […] Samples were pre-incubated for 5 minutes at 25° C. Reaction was initiated by the addition of enzyme to samples, which were then incubated for 1 hour at 25° C. The fluorescence of AMC (7-amino-4-methylcoumarin) was monitored at 460 nm (excitation wavelength 360 nm), using fluorescence spectrophotometer.
as §4

[6] = target: Recombinant human Cathepsin S (Homo sapiens, UniProt P25774); experiment: Selectivity study: cathepsin S (Z-Val-Val-AMC); assay type: biochemical; settings: 30 minutes at 37° C., read-out: Cathepsins (IC50, nM) S
Procedure: as §1, §2
Recombinant human Cathepsin S (Eur. J. Biochem. 236, 558 (1996) was dissolved in 0.1 M NaOAc 1 mM EDTA-4Na buffer (pH 5.5). All inhibitors were prepared in dimethyl sulfoxide (DMSO). In vitro assays for cathepsin S were conducted with Z-Val-Val-AMC (BACHEM, 1-1160) as a substrate. Samples were pre-incubated for 10 minutes at 4° C. Reaction was initiated by the addition of enzyme to samples, which were then incubated for 30 minutes at 37° C. The florescence of AMC (7-amino-4-methylcoumarin) released was monitored at 465 nm (excitation wavelength 360 nm), using fluorescence spectrophotometer.
as §4

T5 sequence (P07711 114-333): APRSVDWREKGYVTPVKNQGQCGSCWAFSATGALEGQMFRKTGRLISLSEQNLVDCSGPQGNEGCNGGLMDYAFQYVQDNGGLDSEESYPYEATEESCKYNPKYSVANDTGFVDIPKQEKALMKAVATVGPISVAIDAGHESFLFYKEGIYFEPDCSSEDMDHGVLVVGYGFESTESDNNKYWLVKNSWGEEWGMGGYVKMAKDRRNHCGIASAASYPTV
Recombinant human Cathepsin S, sequence (P25774 115-331): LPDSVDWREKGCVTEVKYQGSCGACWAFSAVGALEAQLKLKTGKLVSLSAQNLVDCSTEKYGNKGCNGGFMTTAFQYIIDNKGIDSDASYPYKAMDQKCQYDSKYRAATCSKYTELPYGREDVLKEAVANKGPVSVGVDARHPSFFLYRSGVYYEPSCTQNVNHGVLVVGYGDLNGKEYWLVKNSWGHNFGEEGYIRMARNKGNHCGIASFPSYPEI
T2 sequence (Q3ZCJ8 25-463): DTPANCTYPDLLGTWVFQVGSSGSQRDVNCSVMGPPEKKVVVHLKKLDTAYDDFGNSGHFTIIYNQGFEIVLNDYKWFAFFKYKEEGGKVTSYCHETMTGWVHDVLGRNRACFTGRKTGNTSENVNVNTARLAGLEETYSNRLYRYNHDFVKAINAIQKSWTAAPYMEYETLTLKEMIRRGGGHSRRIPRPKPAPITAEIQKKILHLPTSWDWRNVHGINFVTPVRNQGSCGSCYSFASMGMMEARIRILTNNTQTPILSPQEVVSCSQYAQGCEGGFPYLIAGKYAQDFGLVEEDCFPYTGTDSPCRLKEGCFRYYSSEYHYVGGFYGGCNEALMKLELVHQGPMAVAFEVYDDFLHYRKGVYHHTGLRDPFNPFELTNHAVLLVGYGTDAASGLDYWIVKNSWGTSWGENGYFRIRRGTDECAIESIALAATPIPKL

| pIC50 [1] | IC50 [2] [nM] | IC50 [3] [nM] | IC50 [4] [nM] | IC50 [5] [nM] | IC50 [6] [nM] | melting point [°C] | Compound |
| --- | --- | --- | --- | --- | --- | --- | --- |
| 8.09 | 382 | > 240 | > 240 | 138 | 133 | 219 to 220 | CS(=O)(=O)c1ccccc1N1CCC(NC(=O)C2(NC(=O)c3cc4ccccc4o3)CCCCC2)C(=O)C1 (stereo not shown) [Example 1, 4-[N-[1-[N-(benzofuran-2-ylcarbonyl)amino]cyclohexanecarbonyl]amino]-1-(2-methylsulfonylphenyl)piperidin-3-one] |
| 8.20 | > 1000 | > 1000 | > 1000 | 986 | 212 | – | COc1ccc(N2CCC(NC(=O)C3(NC(=O)c4ccco4)CCCCC3)C(=O)C2)c(S(C)(=O)=O)c1 (stereo not shown) [Example 84, 4-[N-[1-[N-(furan-2-ylcarbonyl)amino]cyclohexanecarbonyl]amino]-1-(4-methoxy-2-methylsulfonylphenyl)piperidin-3-one] |
| 8.32 | > 1000 | > 1000 | > 1000 | 249 | 214 | – | CS(=O)(=O)c1cc(F)ccc1N1CCC(NC(=O)C2(NC(=O)c3ccc(F)cc3)CCCCC2)C(=O)C1 (stereo not shown) [Example 147, 4-[N-[1-[N-(4-fluorobenzoyl)amino]cyclohexanecarbonyl]amino]-1-(4-fluoro-2-methanesulfonylphenyl)piperidin-3-one] |
| 8.51 | > 1000 | > 1000 | > 1000 | 178 | 141 | – | COc1ccc(N2CCC(NC(=O)C3(NC(=O)c4ccc(F)cc4)CCCCC3)C(=O)C2)c(S(C)(=O)=O)c1 (stereo not shown) [Example 148, 4-[N-[1-[N-(4-fluorobenzoyl)amino]cyclohexanecarbonyl]amino]-1-(2-methanesulfonyl-4-methoxyphenyl)piperidin-3-one] |
